Reference: patent publication US10544140B2, “Pharmaceutical composition containing, as active ingredient, 7-azaindolin-2-one derivative or pharmaceutically acceptable salt thereof” (LG CHEM, LTD., priority 2015, dated 2020)

How the values were obtained:
[1] = tested on: MCF-7 (human breast cancer cell line); test: Cytotoxicity test by MTT assay, MCF-7; assay type: cell-based; conditions: Homo sapiens, MCF7; for cytotoxicity at 30 µM: MCF-7, 30 μM, 48 h, read-out: Cell viability (% inhibition); for IC50: MCF-7, 48 h
Procedure: (§1) A cytotoxicity test was measured by MTT assay. Each cell line was cultured in a 96-well plate at a density of 1×10^4 cells/well. […] MTT (3-(4,5-dimethylthiazol-2-yl)-2,5-diphenyltetrazolium bromide) solution (5 mg/mL) was added to each well and reacted for 4 hours in an incubator. […] After reacting in an incubator for 30 minutes, the formation of formazan was quantified using a microplate reader at an absorbance of 540 nm. […] At this time, sunitinib was used as a control group. […] The human cancer cell lines used herein are MCF-7 (breast cancer), MDA-MB-231 (breast cancer), HT-29 (colon cancer), DU145 (prostate cancer), U937 (myeloid leukemia), A549 (lung cancer), PANC-1 (pancreatic cancer) and MIA PaCa-2 (pancreatic cancer).

[2] = Cytotoxicity test by MTT assay, HEK293 normal cell line; assay type: cell-based; conditions: human, HEK293 cells (normal cell line)
Procedure: (§2) A cytotoxicity test was measured by MTT assay. Each cell line was cultured in a 96-well plate at a density of 1×10^4 cells/well. After 24 hours, the culture medium containing 1% FBS (fetal bovine serum) was treated and reacted with compounds or solutions of compounds for 48 hours. MTT (3-(4,5-dimethylthiazol-2-yl)-2,5-diphenyltetrazolium bromide) solution (5 mg/mL) was added to each well and reacted for 4 hours in an incubator. […] After reacting in an incubator for 30 minutes, the formation of formazan was quantified using a microplate reader at an absorbance of 540 nm.

[3] = tested on: A549 (lung cancer); test: Cytotoxicity test by MTT assay, A549; assay type: cell-based, human; conditions: Homo sapiens, A549, 48 h
Procedure: (§3) A cytotoxicity test was measured by MTT assay. Each cell line was cultured in a 96-well plate at a density of 1×10^4 cells/well. After 24 hours, the culture medium containing 1% FBS (fetal bovine serum) was treated and reacted with compounds or solutions of compounds for 48 hours. MTT (3-(4,5-dimethylthiazol-2-yl)-2,5-diphenyltetrazolium bromide) solution (5 mg/mL) was added to each well and reacted for 4 hours in an incubator. […] After reacting in an incubator for 30 minutes, the formation of formazan was quantified using a microplate reader at an absorbance of 540 nm. […] The human cancer cell lines used herein are MCF-7 (breast cancer), MDA-MB-231 (breast cancer), HT-29 (colon cancer), DU145 (prostate cancer), U937 (myeloid leukemia), A549 (lung cancer), PANC-1 (pancreatic cancer) and MIA PaCa-2 (pancreatic cancer).

[4] = tested on: DU145 (prostate cancer); test: Cytotoxicity test by MTT assay, DU145; assay type: cell-based, human; conditions: DU-145; for IC50: Homo sapiens, DU145, 48 h
Procedure: as §3

[5] = tested on: U937 (myeloid leukemia); test: Cytotoxicity test by MTT assay, U937; assay type: cell-based, human; conditions: Homo sapiens, U-937; U937, 48 h
Procedure: as §3

[6] = tested on: PANC-1 (human pancreatic cancer cell line); test: Cytotoxicity test by MTT assay, PANC-1; assay type: cell-based; conditions: for cytotoxicity at 30 µM / IC50: Homo sapiens; for cytotoxicity at 30 µM: PANC-1, 30 μM, 48 h, read-out: Cell viability (% inhibition); for IC50: PANC-1, 48 h
Procedure: as §1

[7] = tested on: HT-29 (colon cancer); test: Cytotoxicity test by MTT assay, HT-29; assay type: cell-based, human; conditions: Homo sapiens, HT-29, 48 h
Procedure: as §3

[8] = tested on: MDA-MB-231 (breast cancer); test: Cytotoxicity test by MTT assay, MDA-MB-231; assay type: cell-based, human; conditions: Homo sapiens, MBA-MB-231, 48 h
Procedure: as §3

[9] = Cytotoxicity test by MTT assay, CHO-K1 normal cell line; assay type: cell-based; conditions: Chinese hamster, CHO-K1 cells (normal cell line)
Procedure: as §2

Row | Structure (SMILES) | cytotoxicity at 30 µM [1] [%] | IC50 [1] [µM] | IC50 at 48 h [2] [µM] | IC50 [3] [µM] | IC50 [4] [µM] | IC50 [5] [µM] | cytotoxicity at 30 µM [6] [%] | IC50 [7] [µM] | IC50 [8] [µM] | IC50 at 48 h [9] [µM] | cytotoxicity compared with the reference drug sunitinib [4] | IC50 [6] [µM] | cytotoxicity compared with the reference drug sunitinib ([6]; PANC-1)
1 | CCCCC/C=C1\C(=O)Nc2nc(C)c(O)c(C)c21 [Compound I-01, (Z)-3-Hexylidene-5-hydroxy-4,6-dimethyl-1H-pyrrolo[2,3-b]pyridin-2(3H)-one] | 76.9 | 13.8 | > 90 | 7.6 | 11 | 11.5 | 77.4 | 12.9 | 12.6 | 20.9 |  |  | 
2 | COc1ccc(OC)c(/C=C2\C(=O)Nc3nc(C)c(O)c(C)c32)c1 [Compound I-15, (Z)-3-(2,5-Dimethoxybenzylidene)-5-hydroxy-4,6-dimethyl-1H-pyrrolo[2,3-b]pyridin-2(3H)-one] | 67.5 | 20.9 | 37.8 | 47.5 | 5.55 | 33 | 69.2 | 16.6 | 22.9 | 47.5 | greater than or equal to that of the reference drug sunitinib | 19.5 | 
3 | COc1ccc(Br)cc1/C=C1\C(=O)Nc2nc(C)c(O)c(C)c21 [Compound I-17, (Z)-3-(5-bromo-2-methoxybenzylidene)-5-hydroxy-4,6-dimethyl-1H-pyrrolo[2,3-b]pyridin-2(3H)-one] | 74.7 | 11 | 33 | 10.1 | 4.57 | 12.6 | 71.7 | 25.1 | 10.5 | 30.1 | greater than or equal to that of the reference drug sunitinib |  | 
4 | Cc1nc2c(c(C)c1O)/C(=C/c1ccncc1)C(=O)N2 [Compound I-23, (Z)-5-Hydroxy-4,6-dimethyl-3-(pyridin-4-ylmethylene)-1H-pyrrolo[2,3-b]pyridin-2(3H)-one] | 63.2 | 19.1 | 45.7 | 30.1 | 30.1 | 34.5 | 65.4 | 30.1 |  | 57 |  | 19.1 | 
5 | Cc1nc2c(c(C)c1O)/C(=C/c1ccoc1)C(=O)N2 [Compound I-28, (Z)-3-(Furan-3-ylmethylene)-5-hydroxy-4,6-dimethyl-1H-pyrrolo[2,3-b]pyridin-2(3H)-one] | 66.3 | 22.9 | 19.9 |  | 22.9 | 31.5 | 26.1 |  |  | > 90 |  |  | 
6 | Cc1cc(C)c(/C=C2\C(=O)Nc3nc(C)c(O)c(C)c32)[nH]1 [Compound I-36, (Z)-3-((3,5-Dimethyl-1H-pyrrol-2-yl)methylene)-5-hydroxy-4,6-dimethyl-1H-pyrrolo[2,3-b]pyridin-2(3H)-one] | 47.3 | 31.6 | > 90 | 13.9 |  | 33.9 | 44.7 | 16.6 | 10.2 | 50.1 |  |  | 
7 | Cc1nc2c(c(C)c1O)/C(=C/c1[nH]c(C)c(C(=O)O)c1C)C(=O)N2 [Compound I-37, (Z)-5-((5-Hydroxy-4,6-dimethyl-2-oxo-1H-pyrrolo[2,3-b]pyridin-3(2H)-ylidene)methyl)-2,4-dimethyl-1H-pyrrole-3-carboxylic acid] | 60.4 | 14.8 | 38 | 19.9 |  | 14.8 | 55.8 | 26.2 | 19.5 | 33.1 |  |  | 
8 | CCOC(=O)c1c(C)[nH]c(/C=C2\C(=O)Nc3nc(C)c(O)c(C)c32)c1C [Compound I-38, (Z)-Ethyl-5-((5-hydroxy-4,6-dimethyl-2-oxo-1H-pyrrolo[2,3-b]pyridin-3(2H)-ylidene)methyl)-2,4-dimethyl-1H-pyrrole-3-carboxylate] | 41.7 | 39.8 | > 90 | 18.2 |  | 12.9 | 35.7 | 22.9 | 24.5 | 24 |  |  | 
9 | Cc1nc2c(c(C)c1O)/C(=C/c1[nH]c(C)c(C(=O)NCCN3CCCCC3)c1C)C(=O)N2 [Compound I-42, (Z)-5-((5-Hydroxy-4,6-dimethyl-2-oxo-1H-pyrrolo[2,3-b]pyridin-3(2H)-ylidene)methyl)-2,4-dimethyl-N-(2-(piperidin-1-yl)ethyl)-1H-pyrrole-3-carboxamide] | 63.4 | 8.7 | 21.4 | 13.2 |  | 14.8 | 70.7 | 15.2 | 8.12 | 51.3 |  |  | 
10 | Cc1nc2c(c(C)c1O)/C(=C/c1[nH]c(C)c(C(=O)N3CCCCC3)c1C)C(=O)N2 [Compound I-43, (Z)-3-((3,5-Dimethyl-4-(piperidine-1-carbonyl)-1H-pyrrol-2-yl)methylene)-5-hydroxy-4,6-dimethyl-1H-pyrrolo[2,3-b]pyridin-2(3H)-one] | 50.5 | 26.9 | > 90 | 12.1 |  | 9.77 | 38.5 | 16.6 | 14.8 | 14.8 |  |  | 
11 | Cc1nc2c(c(C)c1O)/C(=C/c1[nH]c(C)c(C(=O)N3CCCC3)c1C)C(=O)N2 [Compound I-44, (Z)-3-((3,5-Dimethyl-4-(pyrrolidine-1-carbonyl)-1H-pyrrol-2-yl)methylene)-5-hydroxy-4,6-dimethyl-1H-pyrrolo[2,3-b]pyridin-2(3H)-one] | 47.7 | 34.7 | > 90 | 50.1 |  | 52.5 | 31.8 | 43.4 | 43.6 | 58.9 |  |  | 
12 | Cc1nc2c(c(C)c1O)/C(=C/c1[nH]c(C)c(C(=O)N3CCN(C)CC3)c1C)C(=O)N2 [Compound I-45, (Z)-3-((3,5-Dimethyl-4-(4-methylpiperazine-1-carbonyl)-1H-pyrrol-2-yl)methylene)-5-hydroxy-4,6-dimethyl-1H-pyrrolo[2,3-b]pyridin-2(3H)-one] | 60.7 | 10.2 | 38 | 26.3 |  | 26.2 | 48.7 | 36.1 | 16.2 | 23.4 |  |  | 
13 | Cc1nc2c(c(C)c1O)/C(=C/c1[nH]c(C)c(C(=O)N3CCOCC3)c1C)C(=O)N2 [Compound I-46, (Z)-3-((3,5-Dimethyl-4-(morpholine-4-carbonyl)-1H-pyrrol-2-yl)methylene)-5-hydroxy-4,6-dimethyl-1H-pyrrolo[2,3-b]pyridin-2(3H)-one] | 71.2 | 12.6 | > 90 | 30.1 | 22.9 |  | 71.1 | 57.5 | 14.5 | > 90 |  | 11.5 | greater than or equal to that of the reference drug sunitinib
14 | COc1cccc2c1C(=O)c1c(O)c3c(c(O)c1C2=O)C[C@@](O)(C(=O)CO)C[C@@H]3O[C@H]1C[C@H](N)[C@H](O)[C@H](C)O1 [Doxorubicin, reference compound] |  |  | 0.32 |  |  |  |  |  |  | 12.1 |  |  | 
